Measured values published in ChEMBL document CHEMBL3865791, “Discovery and development of natural product oridonin-inspired anticancer agents” (Eur J Med Chem, 2016).

Columns and labels:
[1] = Anticancer activity against human Kasumi-1 cells measured after 48 hrs by CCK8 assay; format: functional, cell-based; details: Kasumi 1, 48 h
[2] = Antiproliferative activity against human MDA-MB-231 cells; format: functional, cell-based
[3] = Anticancer activity against AML cells isolated from AML-ETO9a leukemia mouse measured after 48 hrs by CCK8 assay; format: functional, cell-based
[4] = Anticancer activity against human K562 cells measured after 24 hrs by MTT assay; format: functional, cell-based; details: K562, 24 h
[5] = Oral bioavailability in Wistar rat at 20 mg/kg administered as single dose through gavage measured after 48 hrs by HPLC/ESI-MS analysis; format: ADME, organism-based; details: in vivo
[6] = Antiproliferative activity against human […] cells after 24 hrs by MTT assay; format: functional, cell-based
[7] = Oral bioavailability in Wistar rat at 10 mg/kg, ip administered as single dose measured after 36 hrs by HPLC/ESI-MS analysis; format: ADME, organism-based; details: in vivo, intraperitoneal
[8] = Antiproliferative activity against human ER-positive MCF7 cells measured after 48 hrs by MTT assay; format: functional, cell-based; details: MCF7, 48 h
[9] = Anticancer activity against human PC3 cells measured after 48 hrs by CCK8 assay; format: functional, cell-based; details: PC-3, 48 h
[10] = Anticancer activity against human MT1 cells measured after 48 hrs by trypan blue assay; format: functional, cell-based; details: MT1, 48 h
[11] = Anticancer activity against human LNCAP cells measured after 48 hrs by CCK8 assay; format: functional, cell-based
[12] = Anticancer activity against human Hep2 cells measured after 24 hrs by MTT assay; format: functional, cell-based; details: HEp-2, 24 h
[13] = Antiproliferative activity against human MDA-MB-231 cells measured after 48 hrs by MTT assay; format: functional, cell-based; details: MDA-MB-231, 48 h
[14] = Anticancer activity against human U266 cells measured after 48 hrs by trypan blue assay; format: functional, cell-based; details: U-266, 48 h
[15] = Antiproliferative activity against human MGC803 cells after 72 hrs by MTT assay; format: functional, cell-based; details: MGC-803, 72 h
[16] = Anticancer activity against rat HSC-T6 cells measured after 48 hrs by alamar blue assay; format: functional, cell-based; details: HSC-T6, 48 h
[17] = Antiproliferative activity against human […] cells after 72 hrs by MTT assay; format: functional, cell-based
[18] = Antiproliferative activity against human MCF7/ADR cells measured after 48 hrs by MTT assay; format: functional, cell-based; details: NCI/ADR-RES
[19] = Antitumor activity against H22 cells xenografted in ICR mouse assessed as tumor growth inhibition at 20 mg/kg/day, ip administered for 4 consecutive days relative to control; format: functional; details: read-out: TGI
[20] = Anticancer activity against human LX2 cells measured after 48 hrs by alamar blue assay; format: functional, cell-based; details: LX-2, 48 h
[21] = Anticancer activity against human SW480 cells measured after 24 hrs by MTT assay; format: functional, cell-based; details: SW480, 24 h
[22] = Anticancer activity against human Jurkat cells measured after 48 hrs by trypan blue assay; format: functional, cell-based
[23] = Anticancer activity against human RPMI8226 cells measured after 48 hrs by trypan blue assay; format: functional, cell-based; details: RPMI-8226, 48 h
[24] = Anticancer activity against human K562/ADR cells measured after 24 hrs by MTT assay; format: functional, cell-based
[25] = Antiproliferative activity against human ER-triple negative MDA-MB-468 cells measured after 48 hrs by MTT assay; format: functional, cell-based; details: MDA-MB-468, 48 h
[26] = Antiproliferative activity against human MCF7 cells; format: functional, cell-based
[27] = Antitumor activity against human MGC803 cells xenografted in ICR mouse assessed as tumor growth inhibition at 40 mg/kg/day, ip for 25 consecutive days relative to control; format: functional; details: MGC-803, ip, read-out: TGI
[28] = Anticancer activity against human SW620 cells measured after 24 hrs by MTT assay; format: functional, cell-based; details: SW-620, 24 h
[29] = Antiproliferative activity against human CaEs17 cells after 72 hrs by MTT assay; format: functional, cell-based; details: CaEs17, 72 h
[30] = Antiproliferative activity against human K562 cells after 72 hrs by MTT assay; format: functional, cell-based; details: K562, 72 h
[31] = Anticancer activity against human MT2 cells measured after 48 hrs by trypan blue assay; format: functional, cell-based; details: MT2, 48 h

Compound `C=C1C(=O)[C@]23[C@H](O)[C@H]1CC[C@H]2[C@@]12CO[C@]3(O)[C@@H](O)[C@@H]1C(C)(C)CC[C@@H]2O` [ORIDONIN] has an EC50 [1] of 1330 nM, an EC50 [2] of 29.4 µM and an EC50 [3] of 2500 nM. The EC50 [4] was 14.6 µM, the bioavailability [5] was 4.3% and the EC50 [6] was 29.8 µM. It also gave a bioavailability [7] of 12.6%, an EC50 [8] of 4.4 µM and an EC50 [9] of 25 µM. The EC50 [10] was 1200 to 2700 nM, the EC50 [11] was 25 µM and the EC50 [12] was 37.1 µM. The EC50 [13] was 28 to 29.4 µM, the EC50 [14] was 1200 to 2700 nM and the EC50 [15] was 5.69 µM. The EC50 [16] was 7 µM, the EC50 [17] was 7.48 µM and the EC50 [18] was 34.8 µM. It also gave an inhibition in vivo at 20 mg/kg/day [19] of 42.7%, an EC50 [20] of 7 µM and an EC50 [21] of 20.8 to 37 µM. For the same compound, the EC50 [22] was 1200 to 2700 nM, the EC50 [23] was 1200 to 2700 nM and the EC50 [24] was less than 40 µM. For the same compound, the EC50 [25] was 5.3 µM, the EC50 [26] was 6.6 µM and the inhibition in vivo at 40 mg/kg/day [27] was 37.3%. It also gave an EC50 [28] of 20.8 to 37 µM, an EC50 [29] of 11 µM and an EC50 [30] of 4.76 µM. For the same compound, the EC50 [31] was 1200 to 2700 nM.
